Results as given in patent US8168667B2 (Galapagos NV, priority 2006, dated 2012).
Where two headings read alike, the source gives them in different places.

Target: T1, human androgen receptor (hAR) (Homo sapiens, UniProt P10275)
T1 sequence (P10275 1-920): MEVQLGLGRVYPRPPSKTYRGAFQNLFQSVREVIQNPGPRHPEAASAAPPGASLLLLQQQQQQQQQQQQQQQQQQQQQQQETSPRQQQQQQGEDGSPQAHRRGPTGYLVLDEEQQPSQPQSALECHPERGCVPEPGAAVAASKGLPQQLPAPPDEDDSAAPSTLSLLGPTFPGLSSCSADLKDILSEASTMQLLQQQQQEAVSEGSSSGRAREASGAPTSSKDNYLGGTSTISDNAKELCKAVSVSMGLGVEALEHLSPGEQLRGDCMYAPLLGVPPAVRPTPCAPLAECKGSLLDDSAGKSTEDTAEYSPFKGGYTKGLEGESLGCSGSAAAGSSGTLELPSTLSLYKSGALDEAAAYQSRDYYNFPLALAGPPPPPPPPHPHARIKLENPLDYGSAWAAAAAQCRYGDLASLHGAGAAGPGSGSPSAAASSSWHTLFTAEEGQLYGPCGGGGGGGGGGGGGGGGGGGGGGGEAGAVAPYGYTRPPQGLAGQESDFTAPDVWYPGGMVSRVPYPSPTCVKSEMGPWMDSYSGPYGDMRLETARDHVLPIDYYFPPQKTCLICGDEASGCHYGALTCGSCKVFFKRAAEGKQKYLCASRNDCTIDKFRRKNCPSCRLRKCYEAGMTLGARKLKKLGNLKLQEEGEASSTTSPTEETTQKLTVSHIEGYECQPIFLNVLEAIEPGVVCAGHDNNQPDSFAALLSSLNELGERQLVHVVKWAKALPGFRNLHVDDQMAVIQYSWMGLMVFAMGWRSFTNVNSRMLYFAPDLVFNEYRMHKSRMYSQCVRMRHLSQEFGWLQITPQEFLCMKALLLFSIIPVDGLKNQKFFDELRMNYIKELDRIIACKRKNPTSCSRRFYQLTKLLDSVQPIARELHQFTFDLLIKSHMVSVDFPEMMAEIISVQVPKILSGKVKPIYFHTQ
Assay: Functional response test: hAR transactivation (luciferase reporter) in HALP2 cells
Type: cell-based
Conditions: for EC50: agonism, HALP2 cells (HeLa, hAR + ARE-luciferase), 20 hours at 37° C.
From the text: This test constitutes a method of identifying pure or partial agonists which mimic the effects of natural hormones, such as DHT (dihydrotestosterone) in the present case or, on the other hand, antagonists which inhibit them.
For this transactivation test, plasmids encoding a reporter gene and the human androgen receptor (hAR) are introduced together by transfection into the HeLa cell line. The reporter plasmid contains luciferase cDNA under the control of the AREs contained in the promoter sequences of the probasin gene (3xpbAREminicoll-luciferase/pGL3-puro). The expression of the reporter gene constitutes an indication of the transcriptional activity of hAR. It also encodes a protein allowing the cells expressing it to resist a treatment with puromycin. The plasmid encoding hAR contains the cDNA of hAR under the control of the Cytomegalovirus (CMV) promoter. It also encodes a protein allowing the cells expressing it to resist a treatment with neomycin. The treatment of cells with increasing amounts of potentially agonistic compounds will increase the expression of the reporter gene. To detect antagonists, on the other hand, increasing doses of test compounds are tested in the presence of […] of DHT. The expression of the reporter gene, which is constant for each dose of DHT, decreases when the concentration of the test compounds increases.
For this test, HeLa cells were obtained from the American Type Culture Collection (Rockville, Md.) and cultivated in DMEM medium containing 4.5 g/l of glucose, supplemented with Glutamax and with nonessential amino-acids and with 10% of foetal calf serum (SVF; Dominique Dutscher).
On the day before transfection, a million cells were seeded in DMEM medium without phenol red, supplemented with Glutamax and with desteroided SVF (5%) in Petri dishes. The cells were transfected with 4 μg of the puromycin resistance plasmids pcDNA3-hAR and 3xpbAREminicoll-luciferase/pGL3 using the reagent “Lipofectamine plus” (Invitrogen), following the supplier's recommendations. The day after transfection, the cells were seeded to different cell densities (10,000 to 100,000 cellules per Petri dish). Two days after transfection, the transfected cells were selected in DMEM medium without phenol red, supplemented with Glutamax and with desteroided SVF (5%) containing 400 μg/mL of G418 (Invitrogen) and 150 ng/mL of puromycin (Sigma). The culture medium was renewed weekly until resistant clones appeared. The resistant clones were removed and amplified before being tested for their functional response. […]
The functional response test was conducted on 96-well plates. The HALP2 cells were seeded (30,000 cells per well) 24 hours before the phase of stimulation in DMEM medium containing 4.5 g/L of glucose, supplemented with Glutamax and nonessential amino-acids, and with desteroided SVF (5%).
On the day of stimulation, the seeding medium was replaced by DMEM medium without phenol red, supplemented with Glutamax and with desteroided SVF (5%). […] The cells were placed in contact with the compounds for 20 hours at 37° C.

[1] = antagonism, concentration which increases the EC50 of the DHT by a factor of 2, Schild regression, HALP2 cells

Row | EC50 | KSchild (nM) potency [1] | SMILES | KSchild (nM) potency
1 | 16.4 nM | 13.69 nM | O=C1C(c2ccc(O)cc2)N(Cc2ccsc2)C(=O)N1c1ccc(Cl)c(Cl)c1 (centres unmarked) [Example 10, 1-(3,4-dichlorophenyl)-4-(4-hydroxyphenyl)-3-[(thiophen-3-yl)methyl]imidazolidine-2,5-dione] | –
2 | 80 nM | 80 nM | CCCN1C(=O)N(c2ccc(F)c(Cl)c2)C(=O)C1c1ccc(O)cc1 (centres unmarked) [Example 11, 1-(3-chloro-4-fluorophenyl)-4-(4-hydroxyphenyl)-3-propylimidazolidine-2,5-dione] | –
3 | – | – | C=CCN1C(=O)N(c2ccc(C#N)c(C(F)(F)F)c2)C(=O)C1c1ccc(O)cc1 (centres unmarked) [Example 12, 4-[2,5-dioxo-4-(4-hydroxyphenyl)-3-(2-propenyl)imidazolidin-1-yl]-2-trifluoromethyl-benzonitrile] | 24.49 nM
4 | – | – | C=CCN1C(=O)N(c2ccc([N+](=O)[O-])c(C(F)(F)F)c2)C(=O)C1c1ccc(O)cc1 (centres unmarked) [Example 13, 1-(4-nitro-3-trifluoromethylphenyl)-4-(4-hydroxyphenyl)-3-(2-propenyl)imidazolidine-2,5-dione] | 122.47 nM
5 | 30 nM | 30 nM | C=CCN1C(=O)N(c2ccc(F)c(F)c2)C(=O)C1c1ccc(O)cc1 (centres unmarked) [Example 14, 1-(3,4-difluorophenyl)-4-(4-hydroxyphenyl)-3-(2-propenyl)imidazolidine-2,5-dione] | –
6 | 11.3 nM | 11.29 nM | CCOC(=O)CCN1C(=O)N(c2ccc(Cl)c(Cl)c2)C(=O)C1c1ccc(O)cc1 (centres unmarked) [Example 15, Ethyl 3-[1-(3,4-dichlorophenyl)-4-(4-hydroxyphenyl)-2,5-dioxoimidazolidin-3-yl]propionate] | –
7 | 2000 nM | 2000 nM | O=C1C(c2ccc(O)cc2)N(Cc2ccsc2)C(=S)N1c1cccc(Cl)c1Cl (centres unmarked) [Example 17, 1-(2,3-dichlorophenyl)-4-(4-hydroxyphenyl)-3-[(thiophen-3-yl)methyl]-2-thioxo-imidazolidin-5-one] | –
8 | 5660 nM | 5656.85 nM | O=C1C(c2ccc(O)cc2)N(Cc2ccsc2)C(=S)N1c1ccc(Cl)cc1Cl (centres unmarked) [Example 18, 1-(2,4-dichlorophenyl)-4-(4-hydroxyphenyl)-3-[(thiophen-3-yl)methyl]-2-thioxo-imidazolidin-5-one] | –
9 | 195 nM | 154.92 nM | O=C1C(c2ccc(O)cc2)N(Cc2ccsc2)C(=S)N1c1ccc(Cl)c(Cl)c1 (centres unmarked) [Example 19, 1-(3,4-dichlorophenyl)-4-(4-hydroxyphenyl)-3-[(thiophen-3-yl)methyl]-2-thioxo-imidazolidin-5-one] | –
10 | 4 nM | 3 nM | C=CCN1C(=O)N(c2ccc(Cl)c(Cl)c2)C(=O)C1(C)c1ccc(O)cc1 (centres unmarked) [Example 20, 1-(3,4-dichlorophenyl)-4-(4-hydroxyphenyl)-4-methyl-3-(2-propenyl)imidazolidine-2,5-dione] | –
11 | – | – | C#CCN1C(=O)N(c2ccc(Cl)c(Cl)c2)C(=O)C1(C)c1ccc(O)cc1 (centres unmarked) [Example 21, 1-(3,4-dichlorophenyl)-4-(4-hydroxyphenyl)-4-methyl-3-(2-propynyl)imidazolidine-2,5-dione] | 3 nM
12 | 15 nM | 15 nM | CC1(c2ccc(O)cc2)C(=O)N(c2ccc(Cl)c(Cl)c2)C(=O)N1CCCCO (centres unmarked) [Example 22, 1-(3,4-dichlorophenyl)-3-(4-hydroxybutyl)-4-(4-hydroxyphenyl)-4-methylimidazolidine-2,5-dione] | –
13 | – | – | CC1(c2ccc(O)cc2)C(=O)N(c2ccc(C#N)c(C(F)(F)F)c2)C(=O)N1CCCCO (centres unmarked) [Example 24, 4-[2,5-dioxo-3-(4-hydroxybutyl)-4-(4-hydroxyphenyl)-4-methylimidazolidin-1-yl]-2-trifluoromethylbenzonitrile] | 15 nM
14 | – | – | CC1(c2ccc(O)cc2)C(=O)N(c2ccc(C#N)c(C(F)(F)F)c2)C(=O)N1C1CC1 (centres unmarked) [Example 24.1, 4-[3-cyclopropyl-2,5-dioxo-4-(4-hydroxyphenyl)-4-methylimidazolidin-1-yl]-2-trifluoromethylbenzonitrile] | 10 nM
15 | 13.4 nM | 10.63 nM | Cc1cc(Br)ccc1N1C(=O)N(C)C(C)(c2ccc(O)cc2)C1=O (centres unmarked) [Example 27, 1-(4-bromo-2-methylphenyl)-3,4-dimethyl-4-(4-hydroxyphenyl)imidazolidine-2,5-dione] | –
16 | 24.5 nM | 24.49 nM | Cc1cc(Cl)ccc1N1C(=O)N(C)C(C)(c2ccc(O)cc2)C1=O (centres unmarked) [Example 28, 1-(4-chloro-2-methylphenyl)-3,4-dimethyl-4-(4-hydroxyphenyl)imidazolidine-2,5-dione] | –
17 | 60 nM | 60 nM | CN1C(=O)N(c2ccc(C(F)(F)F)cc2Cl)C(=O)C1(C)c1ccc(O)cc1 (centres unmarked) [Example 29, 1-(2-chloro-4-trifluoromethylphenyl)-3,4-dimethyl-4-(4-hydroxyphenyl)imidazolidine-2,5-dione] | –
18 | 15 nM | 15 nM | CN1C(=O)N(c2ccc(Cl)c(Cl)c2Cl)C(=O)C1(C)c1ccc(O)cc1 (centres unmarked) [Example 30, 3,4-dimethyl-4-(4-hydroxyphenyl)-1-(2,3,4-trichlorophenyl)imidazolidine-2,5-dione] | –
19 | – | – | CN1C(=O)N(c2ccc(C#N)c3ccccc23)C(=O)C1(C)c1ccc(O)cc1 (centres unmarked) [Example 31, 4-[3,4-dimethyl-2,5-dioxo-4-(4-hydroxyphenyl)imidazolidin-1-yl]naphthonitrile] | 800 nM
20 | 300 nM | 300 nM | CN1C(=O)N(c2ccc(Cl)c3ccccc23)C(=O)C1(C)c1ccc(O)cc1 (centres unmarked) [Example 32, 1-(4-chloronaphthyl)-3,4-dimethyl-4-(4-hydroxyphenyl)imidazolidine-2,5-dione] | –
21 | – | – | CN1C(=O)N(c2ccc(C#N)c3c2CCC3)C(=O)C1(C)c1ccc(O)cc1 (centres unmarked) [Example 33, 2,3-dihydro-7-[3,4-dimethyl-2,5-dioxo-4-(4-hydroxyphenyl)imidazolidin-1-yl]-4(1H)-indenenitrile] | 0.78 nM

Row | SMILES | EC50 | KSchild (nM) potency [1] | KSchild (nM) potency
22 | C=CCN1C(=O)N(c2ccc(C#N)c(C(F)(F)F)c2)C(=O)C1(C)c1ccc(O)cc1 (centres unmarked) [Example 23, 4-[2,5-dioxo-4-(4-hydroxyphenyl)-4-methyl-3-(2-propenyl)imidazolidin-1-yl]-2-trifluoromethylbenzonitrile] | – | 2 nM | –
23 | CC1(c2ccc(O)cc2)C(=O)N(c2ccc(C#N)c(C(F)(F)F)c2)C(=O)N1C1CCCC1 (centres unmarked) [Example 24.2, 4-[3-cyclopentyl-2,5-dioxo-4-(4-hydroxyphenyl)-4-methylimidazolidin-1-yl]-2-trifluoromethylbenzonitrile] | – | 20 nM | –
24 | Cc1cc([N+](=O)[O-])ccc1N1C(=O)N(C)C(C)(c2ccc(O)cc2)C1=O (centres unmarked) [Example 26, 3,4-dimethyl-4-(4-hydroxyphenyl)-1-(2-methyl-4-nitro-phenyl)imidazolidine-2,5-dione] | – | 20 nM | –
